Legend:
[1] = system: experimental Streptococcus uberis mastitis; experiment: Rectal temperature in cows with experimental Streptococcus uberis mastitis; assay type: in vivo; conditions: cephapirin alone, intramammary, 4 infusions
Protocol: Eighteen lactating cows were intramammarily inoculated into the two left quarters with Streptococcus uberis (±1000 CFU/quarter). At 2 days after challenge, when all cows had clinical signs of mastitis (i.e. quarter foremilk modification and/or udder swelling), cows were allotted to three groups of six cows each, to produce groups with similar parity and milk production.
One group was treated with cephapirin alone (group 1), one group was treated with cephapirin and 20 mg prednisolone (group 2) and one group was non-treated (group 3). Cows included in group 1 and group 2 were treated in the 2 left inoculated quarters at day 2 after challenge. The first treatment was applied after a morning milking, and the following three infusions were performed immediately after the next 3 consecutive milkings. Cows of group 3 were left untreated. […] The rectal temperature was determined from day 9 before first treatment up to day 19 after first treatment.

leukocytes in blood = experiment: Number of leukocytes in blood from cows with endotoxin-induced mastitis; assay type: in vivo
Protocol: (§1) Fifteen cows were allotted to three groups of 5 cows each, according to milk production and parity. Cows were intramammary infused into 2 homo-lateral quarters with 100 μg Escherichia coli endotoxin (purified lipopolysacchide (LPS) obtained from E. coli 0111:B4) in 20 ml saline.
(§2) Cows were treated with the contents of one injector per endotoxin infused quarter when the first signs of clinical mastitis were evident, i.e. approximately 2 hours after endotoxin infusion. One group was treated with 300 mg of cephapirin, one group with 300 mg of cephapirin and 20 mg of prednisolone and one group was the non-treated control. The test preparations contained cephapirin and prednisolone in an oil carrier.
(§3) Blood samples were collected from the jugular vein at 24 hours before endotoxin infusion and 1.5, 8, 48 and 72 hours after endotoxin infusion.

blood PMN = experiment: Chemotaxis of blood PMN from cows with endotoxin-induced mastitis; assay type: in vivo
Protocol: as §1, §2, §3

[2] = system: cows with endotoxin-induced mastitis; experiment: Udder scores (local inflammation) in cows with E. coli endotoxin-induced mastitis; assay type: in vivo
Protocol: Twenty-four cows were allotted to four groups of 6 cows each, according to milk production and parity. All cows were intramammary infused into two homo-lateral quarters with 100 μg Escherichia coli endotoxin (purified lipopolysacchide (LPS) obtained from E. coli 0111:B4) in 20 ml saline.
The test preparations contained cephapirin and prednisolone in an oily carrier. Four different dose levels of prednisolone were tested: 0 mg (group 1), 10 mg (group 2), 20 mg (group 3) and 40 mg (group 4) per injector (8 g) together with 200 mg of cephapirin sodium.
Cows were treated with the contents of one injector per endotoxin infused quarter when the first signs of clinical mastitis were evident, i.e. 1.5 hours after endotoxin infusion. The next three treatments were infused immediately after consecutive afternoon or morning milkings (12 hours interval) during 2 days. In total four treatments were administered.
Udder scores: The condition and swelling of quarters were determined by palpation once daily after morning milking from day−7 to day−1 relative to endotoxin infusion and twice daily after milkings from day+1 to day+6 relative to endotoxin infusion. The day of endotoxin infusion, swelling of quarters was assessed by palpation approximately every half hour during ±12.5 hours after infusion. The scoring system provides scores 0 to 4. Higher values refer to increased and more severe signs of local inflammation.

[3] = system: pathogen identified on day 0 (clinical mastitis); experiment: Field study: bacteriological cure rate in clinical mastitis; assay type: in vivo, cows; conditions: higher dosage of prednisolone (20 mg) versus 10 mg, field conditions
Protocol: Lactating cows with clinical mastitis in a single quarter (571) were treated intramammarily either with a composition A (n=260) comprising 300 mg cefapirin sodium and 20 mg of prednisolone four times with a 12 h interval or with composition B (n=254) comprising 200 mg amoxicilline, 50 mg clavulanic acid and 10 mg of prednisolone three times with a 12 h interval. These administration schedules correspond to the recommended dosage of the products. The efficacy of the treatment was determined by the bacteriological cure rate (elimination of pathogen identified on day 0) at day 14, and day 21 and the clinical cure rate (affected quarter produces normal milk and no signs of clinical mastitis anymore) at days 14 and 21.
Bacteriological cure: A cow was considered as bacteriologically cured when, both on Days 14 and 21, the milk sample from the affected quarter was free from pathogen(s) present at day 0 (at admission prior to treatment). For clinical mastitis, treatment were considered as a failure for which cows were not yet clinically cured on the first post-treatment sampling (Day 14). […]
The parameters for efficacy are the outcome variables “bacteriological cure” (cure/non-cure) and “clinical cure” (cure/non-cure). The results in Table 3 and FIG. 6 are expressed as numbers and percentages of cows cured.

[4] = system: non-bacterial E. coli endotoxin induced clinical mastitis; conditions: intramammary infusion of 40 mg/unit dose; experimental conditions; cited from earlier work
[5] = 1.5 hours relative to endotoxin infusion (before first treatment)
[6] = 8 hours relative to endotoxin infusion, treatments at 2, 8, 24 and 36 hours
[7] = 24 hours relative to endotoxin infusion, treatments at 2, 8, 24 and 36 hours
[8] = 72 hours relative to endotoxin infusion, treatments at 2, 8, 24 and 36 hours
[9] = −24 hours relative to endotoxin infusion (before treatment)

Row | Structure (SMILES) | average rectal temperature after treatment [1] | Number of leukocytes in blood (mean) (leukocytes in blood; [5]) | Number of leukocytes in blood (mean) (leukocytes in blood; [6]) | Number of leukocytes in blood (mean) (leukocytes in blood; [7]) | Number of leukocytes in blood (mean) (leukocytes in blood; [8]) | Number of leukocytes in blood (mean) (leukocytes in blood; [9]) | Chemotactic PMN (mean) (blood PMN; [5]) [mL⁻¹] | Chemotactic PMN (mean) (blood PMN; [6]) [mL⁻¹] | Chemotactic PMN (mean) (blood PMN; [7]) [mL⁻¹] | Chemotactic PMN (mean) (blood PMN; [8]) [mL⁻¹] | Chemotactic PMN (mean) (blood PMN; [9]) [mL⁻¹] | dose effect relation of prednisolone and sum of udder scores ([2]; 0, 10, 20, 40 mg prednisolone per injector with 200 mg cephapirin sodium, higher dosages gave lower sum of udder scores) | sum of udder scores compared to placebo quarters ([2]; 20 mg prednisolone per injector with 200 mg cephapirin sodium, intramammary, 4 treatments, from 8 hours post infusion up to evening milking of day 5) | sum of udder scores compared to placebo quarters (0 mg prednisolone) and quarters treated with 10 mg prednisolone ([2]; 40 mg prednisolone per injector with 200 mg cephapirin sodium, intramammary, 4 treatments, from 8 hours post infusion up to evening milking of day 5) | influence on the bacteriological cure rate [3] | effects on local and systemic inflammatory signs [4]
1 | CC(=O)OCC1=C(C(=O)O)N2C(=O)[C@@H](NC(=O)CSc3ccncc3)[C@H]2SC1 [Cephapirin] | decreased slowly | 8157 | 6329 | 12148 | 11317 | 8217 | 1.404e+06 | 142000 | 650000 | 135000 | 2.115e+06 |  |  |  |  | 
2 | C[C@]12C=CC(=O)C=C1CC[C@@H]1[C@@H]2[C@@H](O)C[C@@]2(C)[C@H]1CC[C@]2(O)C(=O)CO [prednisolone, (11β)-11,17,21-trihydroxypregna-1,4-diene-3,20-dione] |  |  |  |  |  |  |  |  |  |  |  | clear dose effect relation | lower sum of udder scores | significantly lower | did not negatively influence | improved effects

Source: patent US7812009B2, “Mastitis treatment” (Intervet International B.V., priority 2002, dated 2010)
